Entries after “also recorded” stand apart in the source; their conditions may differ.
Assays:
Type in all cases: cell-based, Human
ARPE-19 cells [1] = experiment: MTT cytotoxicity assay of TA DDS; conditions: 10 μM, 24 h
Protocol: (§1) Human retinal pigment epithelium, ARPE-19, cells (ATCC # CRL-2302) were grown in 1:1 Dulbecco's Modified Eagle's Medium and Ham's F12 Medium (Mediated, Inc., Manassas, Va.) with 10% fetal bovine serum and 100 Um′ penicillin/streptomycin (Sigma Aldrich, St. Louis, Mo.). The cultures were maintained in a humid environment at 5% CO2 and 37° C.
The cytotoxicity of the DDS was assessed in ARPE-19 cells by the 3-(4,5-dimethylthiazol-2-yl)-2,5-diphenyltetrazolium bromide salt (MTT) assay. Briefly, cells were seeded in 24-well plates at a density of 5×10^4 cells/ml for 24 h to achieve confluency before treatment. Cells were exposed to free TA, TA NPs, and TA NP-TR gel at varying concentrations (0, 1, 10, 100 μM) for 24 h after which the MTT assay was performed. Cell culture media were aspirated, and […] of MTT reagent solution (1 mg/ml) was added to each well. Cells were incubated at 37° C. and 5% CO2 for 4 h, after which the MTT reagent solution was aspirated and 1 mL of DMSO was added to each well. Plates were allowed to shake gently for 10 min before being read by Synergy H4 plate reader (Biotek Industries, Inc., Winooski, Vt.) at absorbance of 570 nm.

[2] = test system: VEGF secretion in ARPE-19 cells; experiment: VEGF secretion ELISA, TA formulations; conditions: 10 μM, 72 h
Protocol: Human retinal pigment epithelium, ARPE-19, cells (ATCC # CRL-2302) were grown in 1:1 Dulbecco's Modified Eagle's Medium and Ham's F12 Medium (Mediated, Inc., Manassas, Va.) with 10% fetal bovine serum and 100 Um′ penicillin/streptomycin (Sigma Aldrich, St. Louis, Mo.). The cultures were maintained in a humid environment at 5% CO2 and 37° C. ARPE-19 cells were seeded onto 24-well plates at 5×10^4 cells/ml and allowed to grow until confluence. On the day of study, cell culture media were replaced with 1% FBS experimental media and allowed to remain in quiescence for 12 h. The cellular monolayers were incubated with varying treatment concentrations of free TA solution (1, 10 and 100 μM), TA NPs (10 and 100 μM) and TA NP-TR gel (10 and 100 μM). Culture media were collected at 12 and 72 h. Secreted VEGF in collected culture media was quantified by the ELISA method (Human VEGFA ELISA kit, Thermo Scientific, Waltham, Mass.). The cell protein content was assayed using the BCA protein assay kit after lysing the cells, and VEGF secretion was normalized to total protein. Samples were read using the Synergy H4 plate reader (Biotek Industries, Inc., Winooski, Vt.) with absorbance at 450 nm minus absorbance at 550 nm.

[3] = test system: VEGF secretion in ARPE-19 cells; experiment: VEGF secretion ELISA, LE formulations
Protocol: as §1, with “(Mediatech,” for “(Mediated,”, “U/mL” for “Um′”
ARPE-19 cells were seeded onto 24-well plates at 5×10^4 cells/mL and allowed to grow until confluence. On the day of study, cell culture media were replaced with 1% FBS experimental media and allowed to remain in quiescence for 12 hours. The cellular monolayers were incubated with varying treatment concentrations of free LE solution (1, 10 μM), LE NPs (10 μM), and LE NPs-TR gel (10 μM). Culture media were collected at 12 and 72 hours. Secreted VEGF in collected culture media was quantified by the ELISA method (Human VEGFA ELISA kit, Thermo Scientific, Waltham, Mass.). The cell protein content was assayed using the BCA protein assay kit after lysing the cells and VEGF secretion was normalized to total protein. Samples were read by using the Synergy H4 plate reader (Biotek Industries, Inc., Winooski, Vt.) with absorbance at 450 nm minus absorbance at 550 nm.

ARPE-19 cells [4] = experiment: MTT cytotoxicity assay of LE DDS; conditions: 1, 10, 100 μM, 24 hours
Protocol: as §1, with “(Mediatech,” for “(Mediated,”, “U/mL” for “Um′”
Cytotoxicity was assessed in ARPE-19 cells by the 3-(4,5-dimethylthiazol-2-yl)-2,5-diphenyltetrazolium bromide salt (MTT) assay. Briefly, cells were seeded in 24-well plates at a density of 5×10^4 cells/mL for 24 hours to achieve confluence before treatment. Cells were exposed to free LE solution, LE NPs, and LE NPs-TR gel at varying concentrations (0, 1, 10, 100 μM) for 24 hours after which the MTT assay was performed. Cell culture media were aspirated and 300 μL of MTT reagent solution (1 mg/mL) was added to each well. Cells were incubated at 37° C. and 5% CO2 for 4 hours, after which the MTT reagent solution was aspirated and 500 μL of DMSO was added to each well. Plates were allowed to shake gently for 10 minutes before being read by Synergy H4 plate reader (Biotek Industries, Inc., Winooski, Vt.) at absorbance of 570 nm.

## CC1(C)O[C@@H]2C[C@H]3[C@@H]4CCC5=CC(=O)C=C[C@]5(C)[C@@]4(F)[C@@H](O)C[C@]3(C)[C@]2(C(=O)CO)O1 [free TA, Triamcinolone acetonide]
ARPE-19 cells [1]
  MTT cytotoxicity vs untreated control cells: induced significant cell death; also recorded: cytotoxic
[2]
  suppression of VEGF expression: no significant effect

## CCOC(=O)O[C@]1(C(=O)OCCl)CC[C@H]2[C@@H]3CCC4=CC(=O)C=C[C@]4(C)[C@H]3[C@@H](O)C[C@@]21C [free LE, Loteprednol etabonate]
[3]; 1 μM, 12 hours
  suppression of VEGF expression vs media control: showed reduction in VEGF expression
[3]; 10 μM, 12 hours
  suppression of VEGF secretion vs control: showed reduction in VEGF expression
[3]; within 12 hours, p<0.05, concentration not stated
  reduction of VEGF expression compared to control: significantly reduced VEGF expression
ARPE-19 cells [4]
  MTT cytotoxicity vs untreated control cells: no impact on cell viability
ARPE-19 cells [4]; listed as free LE solution
  MTT cytotoxicity vs untreated control cells: no cytotoxicity

From patent publication US10973776B1, “Loteprednol etabonate nanoparticles in thermoreversible gels for enhanced therapeutics” (University of South Florida, priority 2015, dated 2021)
